Experimental data from US10668061B2, “Mouse with D4R iRNA in the intercalating cell mass of the amygdala” (POSTECH ACADEMY-INDUSTRY FOUNDATION, priority 2016, dated 2020).

Legend:
[1] = system: mice that underwent weak fear conditioning; assay: Corticosterone-induced PTSD-like memory impairment after weak fear conditioning (freezing); format: in vivo; details: CORT 5 mg/kg i.p.
Description: Fear conditioning trainings were conducted in context A within sound-attenuating conditions (Panlab, Spain). Tone CS (conditioned stimulus) was delivered with a speaker while electric foot shock US (unconditioned stimulus) was applied through a floor grid attached to a shock generator (Panlab). The chambers were also equipped with infrared webcams connected to a personal computer to store animal behavior. Mice were placed in the context A for 2 minutes of acclimation and were then presented with auditory tone (CS: 3 kHz, 80 dB for 30 sec) that were co-terminated with electric foot shocks (US: 0.4 or 0.8 mA for 0.5 sec). Total 8 CS-US pairs were presented in pseudorandom intertrial intervals (varied from 60 to 120 sec). 24 hours after fear conditioning, mice were placed in context B to assess the recall of fear memory by being re-exposed to CS, but without US for 2 minutes. […]
To assess contextual fear memory from cue conditioned animals, the mice were placed again in context A 2 hours after termination of the first recall test and then duration of freezing was measured for 2 minutes without presentation of the auditory cue. The mice were placed in context B 2 hours after termination of the first recall test and the freezing time during presentation of the auditory cue was measured for 2 minutes.

dorsal ITC neurons [2] = assay: Disynaptic IPSP input-output curves in dorsal ITC of CORT-treated mice; format: cell-based; details: vehicle-treated significantly increased
Description: To induce PTSD-like memory impairment, corticosterone (CORT, 5 mg/kg) or vehicle (saline, 0.9% NaCl) was intraperitoneally (i.p.) injected immediately after fear conditioning as previously described. The cue-conditioning group underwent weak fear conditioning with the previously-described CS-US pairing paradigm in context A and was tested for fear recall toward the cue in context B at the next day.
To obtain mechanistic insights into the LTD impairment, we constructed the input-output curves of evoked disynaptic IPSPs. […] Thus, the LTD deficit in CORT-treated mice appears to result from the impaired augmentation of inhibitory inputs to the dorsal ITC neurons.

dorsal ITC neurons [3] = assay: STDP-induced LTD in dorsal ITC in amygdala slices after weak fear conditioning; format: cell-based, mice; details: for induction of LTD after weak fear conditioning: wild-type mice, slices after weak fear conditioning, drug applied to slices
Description: Fear conditioning trainings were conducted in context A within sound-attenuating conditions (Panlab, Spain). Tone CS (conditioned stimulus) was delivered with a speaker while electric foot shock US (unconditioned stimulus) was applied through a floor grid attached to a shock generator (Panlab). The chambers were also equipped with infrared webcams connected to a personal computer to store animal behavior. Mice were placed in the context A for 2 minutes of acclimation and were then presented with auditory tone (CS: 3 kHz, 80 dB for 30 sec) that were co-terminated with electric foot shocks (US: 0.4 or 0.8 mA for 0.5 sec). Total 8 CS-US pairs were presented in pseudorandom intertrial intervals (varied from 60 to 120 sec). 24 hours after fear conditioning, mice were placed in context B to assess the recall of fear memory by being re-exposed to CS, but without US for 2 minutes.
(§1) To compare mPSCs without or after STDP, KCl-based and K-gluconate-based internal solutions were used for recording mIPSCs and mEPSCs, respectively. K-gluconate based solution was also used to record EPSCs and IPSCs evoked by interleaved stimulation. Series resistance (10-30 MΩ) was monitored throughout all experiments. mEPSCs were recorded at −70 mV holding potential in the presence of 1 μM tetrodotoxin (TTX) and 100 μM picrotoxin (Tocris, UK) while mIPSCs were measured at −70 mV in the presence of 1 μM TTX, 25 μM NBQX, and 50 μM 2-amino-5-phosphonovaleric acid (APV, Tocris). Miniature PSCs were analyzed with MiniAnalysis (Synaptosoft, Fort Lee, N.J.) or Clampfit 10.1 software (Molecular Devices). For PSC recordings with interleaved stimulation, the holding potential was briefly (˜40 ms) changed from −70 mV to +10 mV to reach the reversal potential of EPSC for isolation of putative IPSCs. For STDP experiments, stimulus intensity was adjusted to elicit EPSPs displaying 25%-30% of the maximum amplitudes. […]

dorsal ITC neurons [4] = assay: STDP-induced DA-dependent LTD (DA-LTD) in dorsal ITC neurons, amygdala slice whole-cell recordings; format: cell-based, mice; details: for effect on DA-LTD: STDP protocol in presence of DA, antagonists in optimal concentrations selective for each receptor, naive mice; for induction of LTD at the dorsal ITC by receptor agonist: STDP protocol, agonist in place of DA
dorsal ITC neurons [5] = system: dorsal ITC neurons
ITC neurons = assay: Paired recording of unitary IPSCs (uIPSCs) between synaptically coupled ITC neurons
D4R at the dorsal ITC = target: T1, D4R at the dorsal ITC (Mus musculus, UniProt P51436); assay: Weak fear conditioning after bilateral drug infusion into the dorsal ITC (freezing); format: in vivo, mice; details: 500 nM, 0.5 μl bilaterally into dorsal ITC 20 minutes before fear conditioning; vs vehicle
T1 construct: endogenous in cells; host or cells: neurons of the mouse brain in vivo (dorsal ITC of the amygdala); mice from Jackson Laboratory
T1 sequence (P51436 1-387): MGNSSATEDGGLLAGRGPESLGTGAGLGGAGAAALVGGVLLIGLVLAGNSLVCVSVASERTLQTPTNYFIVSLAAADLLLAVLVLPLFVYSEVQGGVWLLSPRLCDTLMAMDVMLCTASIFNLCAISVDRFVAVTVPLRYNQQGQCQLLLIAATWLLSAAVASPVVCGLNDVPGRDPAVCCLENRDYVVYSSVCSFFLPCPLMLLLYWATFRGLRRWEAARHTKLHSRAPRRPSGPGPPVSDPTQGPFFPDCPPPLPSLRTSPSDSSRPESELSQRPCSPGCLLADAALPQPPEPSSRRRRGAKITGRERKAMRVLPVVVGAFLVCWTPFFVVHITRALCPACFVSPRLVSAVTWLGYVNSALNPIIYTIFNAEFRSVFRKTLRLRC
Description: Guide cannulae were implanted bilaterally (26 gauge, Plastics One, Roanoke, Va.) aimed into the dorsal ITC areas in the coordinates, AP−1.4 mm, ML±3.2 mm, DV−4.2 mm from the bregma, and were fixed in the skull with dental cement. The cannulae remained capped with internal dummy cannulae (33 gauges, Plastics One) after surgery. Animals were individually housed and allowed to recover at least for 1 week after surgery. The mice bilaterally received 0.5 μl of either L-745870 or vehicle through the injection cannula (33 gauge, Plastics One) connected to a 10-μl Hamilton syringe for 5 minutes at a rate of 0.1 μl/min using microinfusion pump (Harvard Apparatus, Holliston, Mass.) 20 minutes before fear conditioning. L-745870 was dissolved to 500 nM in 0.9% saline just before the infusion. Mice were kept with injector cannulae for additional 5 minutes after the end of infusion and then were subjected to fear conditioning. […] The subject mice were transcardially perfused right after the last behavioral tests and analyzed for the injection loci. […]
If DA-LTD at the dorsal ITC is a synaptic mechanism that regulates neural circuits conveying fear memory, manipulation of D4R activity or synaptic plasticity at the dorsal ITC should affect fear memory. […] We injected either vehicle or L-745870 bilaterally into the dorsal ITC areas and then assessed acquisition and expression of fear memory (FIG. 5A).

dorsal ITC neurons [6] = assay: STDP in dorsal ITC neurons of naive slices with or without GABAA receptor blockade; format: cell-based, mice; details: +4- and +6-ms interval delays; not in absence of picrotoxin
Description: as §1, with “amplitudes. After obtaining stable baseline recording, 80 presynaptic stimuli were delivered at 2 Hz via metal stimulating electrode placed in LA while paired with action potentials induced by injection of depolarizing current to postsynaptic neurons. Quantal contents were estimated by obtaining the inverse square of the coefficient of variation (1/CV^2). […].” for “amplitudes.”

`C[C@]12C[C@H](O)[C@H]3[C@@H](CCC4=CC(=O)CC[C@@]43C)[C@@H]1CC[C@@H]2C(=O)CO` [CORT, corticosterone] was tested, and the “freezing to the context after cue conditioning only” value [1] was “increased freezing levels”, the “freezing to the conditioned cue 24 hr after weak fear conditioning” value ([1]; vs vehicle-injected, cue or context pairing) was “higher freezing levels” and the “disynaptic IPSPs after weak fear conditioning” value (dorsal ITC neurons [2]) was “not altered”. For the same compound, the “induction of LTD in dorsal ITC of CORT-treated mice” value (dorsal ITC neurons [3]; CORT 5 mg/kg i.p. after conditioning, regardless of fear conditioning) was “LTD could not be triggered”.

With `NCCc1ccc(O)c(O)c1` [DA, Dopamine] the “induction of LTD by the STDP protocol in the presence of DA” value (dorsal ITC neurons [4]; DA 30 mM) was “LTD was readily induced”, the “changes in resting membrane potentials (RMPs) and excitability” value (dorsal ITC neurons [5]; DA 30 mM, before and after application) was “negligible changes” and the “synaptic transmission on bath application alone” value (dorsal ITC neurons [5]; bath application of DA alone, no STDP) was “did not alter synaptic transmission”.

In the case of `Nc1nc2c(ncn2[C@@H]2O[C@H](COP(=O)(O)OP(O)(O)=S)[C@@H](O)[C@H]2O)c(=O)[nH]1` [GDPβS], the “LTD-induced increment of uIPSC amplitude, infused into postsynaptic ITC neurons” value (ITC neurons; GDPβS 0.5 mM in internal solution, postsynaptic neuron) is reported as “not” and the “LTD-induced increment of uIPSC amplitude, infused into presynaptic ITC neurons” value (ITC neurons; GDPβS 0.5 mM in internal solution, presynaptic neuron) is reported as “blocked”.

For `COc1ccccc1N1CCN(CCCCNC(=O)c2ccc(-c3ccc(C(C)=O)cc3)cc2)CC1` [GR-103691], the “effect on DA-LTD” value (dorsal ITC neurons [4]) was “did not affect DA-LTD”.

In the case of `OC1(c2ccc(Cl)cc2)CCN(Cc2c[nH]c3ccccc23)CC1` [L-741626], the “effect on DA-LTD” value (dorsal ITC neurons [4]) is reported as “did not affect DA-LTD”.

`Clc1ccc(N2CCN(Cc3c[nH]c4ncccc34)CC2)cc1` [L-745870] was tested, and the “freezing at 24 hr after weak fear conditioning” value (D4R at the dorsal ITC) was “significantly higher levels of freezing”, the “freezing levels during acquisition” value (D4R at the dorsal ITC) was “comparable freezing levels” and the “induction of LTD after weak fear conditioning” value (dorsal ITC neurons [3]) was “interfered with the induction of LTD”. For the same compound, the “effect on DA-LTD” value (dorsal ITC neurons [4]) was “abolished DA-LTD”.

`CCCN1CCO[C@@H]2c3cc(O)ccc3OC[C@H]21` [PD-128907] was tested, and the “induction of LTD at the dorsal ITC by receptor agonist” value (“induction of LTD at the dorsal ITC” below) (dorsal ITC neurons [4]) was “did not”.

For `Cc1cccc(C(=O)NCN2CCN(c3ccccc3C#N)CC2)c1` [PD-168077, N-([4-(2-cyanophenyl)piperazine-1-yl]methyl)-3-methylbenzamide], the “amplitude of uIPSCs when LTD was induced” value (ITC neurons; current injection to postsynaptic ITC neurons while stimulating LA in presence of PD-168077) was “markedly increased” and the “induction of LTD at the dorsal ITC” value (dorsal ITC neurons [4]) was “allowed for the induction of LTD”.

With `CC#C[C@]1(O)CC[C@H]2[C@@H]3CCC4=CC(=O)CCC4=C3[C@@H](c3ccc(N(C)C)cc3)C[C@@]21C` [RU38486] the “induction of LTD after weak fear conditioning” value (dorsal ITC neurons [3]) was “blocked” and the “effect on DA-LTD” value (dorsal ITC neurons [4]) was “blocked”.

In the case of `Oc1cc2c(cc1O)C(c1ccccc1)CNCC2` (stereo not shown) [SKF-38393], the “induction of LTD at the dorsal ITC” value (dorsal ITC neurons [4]) is reported as “did not”.

picrotoxin was tested, and the “synaptic plasticity by STDP in presence of GABAA receptor antagonist” value (dorsal ITC neurons [6]) was “LTP”.
